Test results reported in patent US20240366728A1, “Treatment of Diabetes Mellitus” (Carmot Therapeutics Inc., priority 2023, published 2024).

Columns and labels:
mouse GLP-1R [1] = target: T1, mouse GLP-1R (Mus musculus, UniProt O35659); assay: β-arrestin-2 recruitment (NanoBiT), mouse GLP-1R; type: cell-based
T1 sequence (O35659 22-463): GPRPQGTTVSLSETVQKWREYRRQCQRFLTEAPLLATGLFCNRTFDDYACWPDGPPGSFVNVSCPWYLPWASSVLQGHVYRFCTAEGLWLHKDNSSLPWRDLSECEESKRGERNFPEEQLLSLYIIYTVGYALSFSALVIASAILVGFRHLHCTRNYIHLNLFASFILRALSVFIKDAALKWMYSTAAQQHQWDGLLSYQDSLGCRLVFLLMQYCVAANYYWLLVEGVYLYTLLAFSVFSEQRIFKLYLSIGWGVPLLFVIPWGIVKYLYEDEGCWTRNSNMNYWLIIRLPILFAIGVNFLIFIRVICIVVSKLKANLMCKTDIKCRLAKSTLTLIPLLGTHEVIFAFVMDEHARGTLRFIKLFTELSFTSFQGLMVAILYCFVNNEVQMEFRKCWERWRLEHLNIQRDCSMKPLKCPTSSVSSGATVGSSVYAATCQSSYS
Method: (§1) To measure GLP-1R and GIPR-mediated β-arrestin recruitment, we utilized Promega's NanoBiT® technology or NanoLuc® Binary Technology. The NanoLuc luciferase is split into two subunits, called LgBiT and SmBIT, which are expressed in HEK293 cells as fusion proteins at the C-terminus of GLP-IR or GIPR and the N-terminus of β-arrestin-2. […] The next day, the media was removed and replaced with […] 1:100 dilution of Nano-Glo® Live Cell Substrate in Opti-MEM™ and equilibrated to room temperature for ten minutes. Background luminescence was measured before 10 nL compound was added using an ECHO Acoustic Liquid Handler.
(§2) To measure GLP-1R and GIPR-mediated β-arrestin recruitment, Promega's NanoBiT® technology or NanoLuc® Binary Technology were utilized. Both allow for the detection and quantification of protein: protein interactions in live cells (Samms et al., Trends Endocrinol Metab 31:410-21). The NanoLuc luciferase is split into two subunits, called LgBiT and SmBIT, which are expressed in HEK293 cells as fusion proteins at the C-terminus of GLP-1R or GIPR and the N-terminus of β-arrestin-2, respectively. […] The next day, media was removed and replaced with 10 μL 1:100 dilution of Nano-Glo® Live Cell Substrate in Optimem and equilibrated to room temperature for ten minutes. Background luminescence was measured before 10 nL compound was added using an ECHO Acoustic Liquid Handler. Luminescence was measured at 1.5-minute intervals for 30 minutes.

mouse GIPR [2] = target: T2, mouse GIPR (Mus musculus, UniProt Q0P543); assay: β-arrestin-2 recruitment (NanoBiT), mouse GIPR; type: cell-based
T2 sequence (Q0P543 19-460): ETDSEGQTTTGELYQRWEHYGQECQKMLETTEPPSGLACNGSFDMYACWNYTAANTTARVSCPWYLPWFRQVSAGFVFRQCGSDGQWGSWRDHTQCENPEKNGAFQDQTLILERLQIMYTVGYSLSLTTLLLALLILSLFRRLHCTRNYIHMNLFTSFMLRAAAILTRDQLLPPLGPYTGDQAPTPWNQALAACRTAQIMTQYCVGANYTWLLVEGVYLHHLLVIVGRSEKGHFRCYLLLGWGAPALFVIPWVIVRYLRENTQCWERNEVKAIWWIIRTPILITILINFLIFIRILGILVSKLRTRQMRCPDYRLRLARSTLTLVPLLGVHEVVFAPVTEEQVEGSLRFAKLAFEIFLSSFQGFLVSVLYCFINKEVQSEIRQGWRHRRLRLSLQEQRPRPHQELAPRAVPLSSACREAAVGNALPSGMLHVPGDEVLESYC
Method: as §1, §2

human GIPR = target: T3, human GIPR (Homo sapiens, UniProt P48546); assay: receptor internalization (Nano-Glo HiBiT), human GIPR; type: cell-based
T3 sequence (P48546 22-466): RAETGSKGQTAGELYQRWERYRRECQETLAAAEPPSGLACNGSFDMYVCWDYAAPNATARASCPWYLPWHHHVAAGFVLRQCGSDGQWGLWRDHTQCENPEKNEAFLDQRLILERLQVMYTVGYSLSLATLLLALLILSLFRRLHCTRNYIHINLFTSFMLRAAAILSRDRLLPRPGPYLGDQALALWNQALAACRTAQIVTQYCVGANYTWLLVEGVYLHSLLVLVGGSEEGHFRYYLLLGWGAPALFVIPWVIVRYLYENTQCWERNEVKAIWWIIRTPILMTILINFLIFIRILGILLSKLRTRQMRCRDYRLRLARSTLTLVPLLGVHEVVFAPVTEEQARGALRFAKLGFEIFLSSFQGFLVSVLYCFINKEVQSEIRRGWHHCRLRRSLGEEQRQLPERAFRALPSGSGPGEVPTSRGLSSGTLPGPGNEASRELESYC
Method: (§3) GLP-1R and GIPR internalization were measured using Promega's Nano-Glo® HiBit extracellular detection system (Promega Corporation; Madison, WI). Hek293 cells were transiently transfected with HiBiT-tagged hGLP-1R or hGIPR plasmids (Promega Corporation; Madison, WI). Cells were lifted using the TrypLE express enzyme (ThermoFisher Scientific) and plated at 80,000-100,000 cells per well in 96 well plates. Cells were then treated with Nano-Glo HibiT extracellular buffer containing LgBiT protein (1:100), and the Nano-Glo HiBiT extracellular substrate (1:50).
(§4) GLP-1R and GIPR internalization was measured using Promega's Nano-Glo® HiBit extracellular detection system (Promega Corporation; Madison, WI). HEK293 cells were transiently transfected with low quantities of HiBiT-tagged hGLP-1R or hGIPR plasmids (Promega Corporation; Madison, WI). The next day, cells were lifted using TrypLE express enzyme (ThermoFisher Scientific) and plated at 80,000-100,000 cells per well in 96 well plates.

human GLP-1R = human GLP-1R (Homo sapiens, UniProt P43220); assay: receptor internalization (Nano-Glo HiBiT), human GLP-1R; type: cell-based; set-up: host or cells: HEK293
human GLP-1R, sequence (P43220 24-463): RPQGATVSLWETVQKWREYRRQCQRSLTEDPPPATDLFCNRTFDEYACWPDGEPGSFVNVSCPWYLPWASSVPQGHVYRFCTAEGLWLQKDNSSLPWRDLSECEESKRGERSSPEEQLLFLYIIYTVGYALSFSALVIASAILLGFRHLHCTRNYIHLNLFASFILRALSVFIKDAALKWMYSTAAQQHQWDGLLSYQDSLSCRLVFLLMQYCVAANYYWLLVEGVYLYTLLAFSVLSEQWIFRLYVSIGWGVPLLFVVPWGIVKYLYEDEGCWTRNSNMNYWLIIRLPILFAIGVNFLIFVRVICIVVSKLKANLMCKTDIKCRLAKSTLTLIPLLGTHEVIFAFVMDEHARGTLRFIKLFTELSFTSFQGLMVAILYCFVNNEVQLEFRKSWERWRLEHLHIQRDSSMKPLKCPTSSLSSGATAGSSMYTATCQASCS
Method: as §3, §4

mouse GLP-1R [3] = target: T1, mouse GLP-1R; assay: cAMP accumulation (HitHunter cAMP assay), mouse GLP-1R U2OS cells
mouse GIPR [4] = target: T2, mouse GIPR; assay: cAMP accumulation (HitHunter cAMP assay), mouse GIPR CHO-K1 cells
[5] = system: GLP-1R+/+ and GLP-1R-/- mice; assay: intraperitoneal glucose tolerance test in GLP-1R+/+ and GLP-1R-/- mice

Method for 1 mg/kg SC mouse: First reader's note: The heading '1 mg/kg SC mouse' is printed over the plot above the table and gives dose, route and species for the pharmacokinetic parameters.

## CCCCCCCCCCCCCCCC(=O)N[C@@H](CCC(=O)NCCCC[C@H](NC(=O)[C@H](CO)NC(=O)[C@@H]1CCCN1C(=O)[C@@H]1CCCN1C(=O)[C@@H]1CCCN1C(=O)[C@H](C)NC(=O)CNC(=O)[C@H](CO)NC(=O)[C@H](CO)NC(=O)[C@@H]1CCCN1C(=O)CNC(=O)CNC(=O)[C@H](C)NC(=O)[C@H](CC(C)C)NC(=O)[C@H](CC(C)C)NC(=O)[C@H](Cc1c[nH]c2ccccc12)NC(=O)[C@H](CC(N)=O)NC(=O)[C@@H](NC(=O)[C@H](Cc1ccccc1)NC(=O)[C@H](CCC(=O)O)NC(=O)C(C)(C)NC(=O)[C@H](C)NC(=O)[C@H](C)NC(=O)[C@H](CCC(N)=O)NC(=O)[C@H](CCCCN)NC(=O)[C@H](CC(=O)O)NC(=O)[C@H](CC(C)C)NC(=O)[C@H](Cc1ccc(O)cc1)NC(=O)[C@@H](NC(=O)[C@H](CO)NC(=O)[C@H](Cc1ccc(O)cc1)NC(=O)[C@H](CC(=O)O)NC(=O)[C@H](CO)NC(=O)[C@@H](NC(=O)[C@H](Cc1ccccc1)NC(=O)[C@@H](NC(=O)CNC(=O)[C@H](CCC(=O)O)NC(=O)CSCC(=O)NCCN1C(=O)CSC1=O)[C@@H](C)O)[C@@H](C)O)[C@@H](C)CC)C(C)C)C(N)=O)C(=O)O [CT-859]
Mouse GLP-1R [1]
  recruitment of β-arrestin-2 to mouse GLP-1R: < 5%
Mouse GLP-1R [1]; antagonist mode vs GLP-1
  native ligand mediated recruitment of β-arrestin-2 at GLP-1R (in words): inhibited
Mouse GIPR [2]; antagonist mode vs GIP
  native ligand mediated recruitment of β-arrestin-2 at GIPR (in words): inhibited
Mouse GIPR [2]; vs GIP
  recruitment of β-arrestin-2 to mouse GIPR: < 5%
Human GIPR
  human GIPR surface expression (in words): stimulating greater surface expression than vehicle
Human GLP-1R
  GLP-1R expression after two hours of exposure (in words): higher versus vehicle-treated cells
1 mg/kg SC mouse
  AUClast: 3.579 µM·h
  Tmax: 4.0 h
Mouse GLP-1R [3]
  agonist type for cAMP accumulation at mouse GLP-1R (in words): full agonist
Mouse GLP-1R [3]; cAMP, mouse GLP-1R
  times less potent than Liraglutide: 12 times
  times less potent than native ligand GLP-1: 113 times
Mouse GIPR [4]
  agonist type for cAMP accumulation at mouse GIPR (in words): partial agonist
Mouse GIPR [4]; cAMP, mouse GIPR
  times lower potency than GIP: 48 times
[5]; GLP-1R knockout mice, 20 nmol/kg
  GLUC AUC during IPGTT (in words): no effect on GLUC AUC
[5]; GLP-1R+/+ mice, 200 nmol/kg
  glucose levels lowered: 75%
[5]; GLP-1R+/+ mice, 20 and 200 nmol/kg
  glucose lowering (in words): lowered the post-prandial glucose levels equally and significantly compared to vehicle
[5]; GLP-1R-/- mice, 20 nmol/kg
  glucose lowering (in words): ineffective at lowering glucose levels
[5]; GLP-1R-/- mice, 200 nmol/kg
  glucose levels lowered compared to vehicle: 46%

## CCCCCCCCCCCCCCCC(=O)N[C@@H](CCC(=O)NCCCC[C@H](NC(=O)[C@H](CO)NC(=O)[C@@H]1CCCN1C(=O)[C@@H]1CCCN1C(=O)[C@@H]1CCCN1C(=O)[C@H](C)NC(=O)CNC(=O)[C@H](CO)NC(=O)[C@H](CO)NC(=O)[C@@H]1CCCN1C(=O)CNC(=O)CNC(=O)[C@H](C)NC(=O)[C@H](CC(C)C)NC(=O)[C@H](CC(C)C)NC(=O)[C@H](Cc1c[nH]c2ccccc12)NC(=O)[C@H](CC(N)=O)NC(=O)[C@@H](NC(=O)[C@H](Cc1ccccc1)NC(=O)[C@H](CCC(=O)O)NC(=O)C(C)(C)NC(=O)[C@H](C)NC(=O)[C@H](C)NC(=O)[C@H](CCC(N)=O)NC(=O)[C@H](CCCCN)NC(=O)[C@H](CC(=O)O)NC(=O)[C@H](CC(C)C)NC(=O)[C@H](Cc1ccc(O)cc1)NC(=O)[C@@H](NC(=O)[C@H](CO)NC(=O)[C@H](Cc1ccc(O)cc1)NC(=O)[C@H](CC(=O)O)NC(=O)[C@H](CO)NC(=O)[C@@H](NC(=O)[C@H](Cc1ccccc1)NC(=O)[C@@H](NC(=O)CNC(=O)[C@H](CCC(=O)O)NC(=O)CSCC(=O)NCCN1CCCCC1=O)[C@@H](C)O)[C@@H](C)O)[C@@H](C)CC)C(C)C)C(N)=O)C(=O)O [CT-868]
Mouse GLP-1R [1]; Table 17, read-out: mGLP-1R β-arrestin-2 EC50
  EC50: 21 nM
Mouse GLP-1R [1]; read-out: mGLP-1R β-arrestin-2 % Emax, Table 17
  Emax: 4.69%
Mouse GIPR [2]; read-out: mGIPR β-arrestin-2 % Emax, Table 17
  Emax: -1.92%
Human GIPR; Table 17, read-out: hGIPR Internalization % Emax
  Emax: -11%
Human GLP-1R; Table 17, read-out: hGLP-1R Internalization % Emax
  Emax: -13%
Mouse GLP-1R [3]; U2OS, read-out: mGLP-1R cAMP (-alb) % Emax
  Emax: 95%
Mouse GIPR [4]; CHO-K1, read-out: mGIPR cAMP (-alb) % Emax
  Emax: 36%
